ChEMBL document CHEMBL2429761, “Discovery of ML314, a Brain Penetrant Non-Peptidic β-Arrestin Biased Agonist of the Neurotensin NTR1 Receptor” (ACS Med Chem Lett, 2013)
In brackets after ≈: the same amount, converted by molar mass.

What was measured:
[1] = Effective permeability of the compound at 50 uM after 30 mins at donor pH 7.4 and acceptor pH 7.4 by PAMPA; type: ADME; conditions: pH 7.4, 0.5 h
[2] = target: T1, Alpha-1D adrenergic receptor (Homo sapiens) (UniProt P25100); test: Binding affinity to adrenergic alpha1D receptor (unknown origin) at 10 uM relative to control
T1 sequence (whole entry): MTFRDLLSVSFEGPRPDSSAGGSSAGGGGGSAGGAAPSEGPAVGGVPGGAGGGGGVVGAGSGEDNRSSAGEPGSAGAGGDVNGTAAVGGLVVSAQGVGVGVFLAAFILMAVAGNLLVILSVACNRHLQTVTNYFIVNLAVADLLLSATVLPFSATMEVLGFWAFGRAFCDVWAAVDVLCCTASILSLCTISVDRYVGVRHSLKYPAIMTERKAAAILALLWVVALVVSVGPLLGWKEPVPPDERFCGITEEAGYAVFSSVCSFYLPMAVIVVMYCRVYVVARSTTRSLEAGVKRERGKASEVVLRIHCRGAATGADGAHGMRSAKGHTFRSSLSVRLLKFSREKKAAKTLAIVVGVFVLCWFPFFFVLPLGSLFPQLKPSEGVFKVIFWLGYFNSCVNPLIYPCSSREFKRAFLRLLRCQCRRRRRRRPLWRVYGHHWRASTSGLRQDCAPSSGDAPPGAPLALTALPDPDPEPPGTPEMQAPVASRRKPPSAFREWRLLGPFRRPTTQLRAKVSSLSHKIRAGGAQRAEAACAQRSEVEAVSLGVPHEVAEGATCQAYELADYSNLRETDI

[3] = Effective permeability of the compound at 50 uM after 30 mins at donor pH 5 and acceptor pH 7.4 by PAMPA; type: ADME; conditions: pH 5, 0.5 h
[4] = Kinetic solubility of the compound in PBS buffer at 250 uM after 18 hrs at pH 7.4; type: physicochemical; conditions: read-out: Kinetic_solubility
[5] = tested on: Liver microsomes; test: Metabolic stability in human liver microsomes assessed as compound remaining at 1 to 10 uM after 1 hr by LC-MS/MS analysis; type: ADME, Microsome
[6] = tested on: Mycobacterium tuberculosis; test: Antibacterial activity against Mycobacterium tuberculosis H37Rv assessed as growth inhibition; type: functional
[7] = target: Neurotensin receptor type 2 (Homo sapiens, UniProt O95665); test: Agonist activity at NTR2 (unknown origin) expressed in human U2OS cells coexpressing beta-arrestin by GFP reporter gene assay; type: cell-based
[8] = Drug uptake in C57BL/6J mouse brain at 10 mg/kg, ip after 1 hr by LC-MS/MS analysis; type: ADME, organism-based; set-up: dose 10 mg/kg, route intraperitoneal; conditions: read-out: Drug uptake
[9] = target: Histamine H1 receptor (Homo sapiens, UniProt P35367); test: Binding affinity to histamine H1 receptor (unknown origin)
[10] = target: T2, 5-hydroxytryptamine receptor 3A (Homo sapiens, UniProt P46098); test: Binding affinity to 5-HT3 receptor (unknown origin)
T2 sequence (P46098 whole entry): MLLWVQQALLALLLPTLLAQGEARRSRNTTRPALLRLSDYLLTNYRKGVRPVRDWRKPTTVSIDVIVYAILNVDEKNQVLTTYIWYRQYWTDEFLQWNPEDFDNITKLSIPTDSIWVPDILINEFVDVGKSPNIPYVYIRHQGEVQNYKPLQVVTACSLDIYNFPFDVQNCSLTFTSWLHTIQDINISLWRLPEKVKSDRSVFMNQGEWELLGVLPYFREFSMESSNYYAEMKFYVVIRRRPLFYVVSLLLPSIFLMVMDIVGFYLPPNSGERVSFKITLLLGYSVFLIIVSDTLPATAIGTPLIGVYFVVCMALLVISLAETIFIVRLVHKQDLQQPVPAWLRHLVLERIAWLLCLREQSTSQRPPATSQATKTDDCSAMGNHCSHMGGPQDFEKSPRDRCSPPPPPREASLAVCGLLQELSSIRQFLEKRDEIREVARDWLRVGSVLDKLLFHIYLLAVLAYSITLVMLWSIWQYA

[11] = tested on: Plasma; test: Plasma protein binding in mouse at 1 uM after 4 hrs by LC-MS/MS analysis; type: ADME, cell-free
[12] = tested on: Mus musculus; test: Hepatic clearance in C57BL/6J mouse at 2 mg/kg, iv by LC-MS/MS analysis; type: ADME, organism-based, Liver; set-up: dose 2 mg/kg, route intravenous; conditions: in vivo
[13] = Kinetic solubility of the compound in pION buffer at 250 uM after 18 hrs at pH 6.2; type: physicochemical; conditions: read-out: Kinetic_solubility
[14] = tested on: Hepatitis C virus; test: Antiviral activity against Hepatitis C virus assessed as growth inhibition; type: functional, Hepacivirus hominis
[15] = tested on: Liver; test: Metabolic stability in mouse liver microsomes assessed as compound remaining at 1 to 10 uM after 1 hr by LC-MS/MS analysis; type: ADME, Microsome
[16] = tested on: Plasma; test: Metabolic stability in mouse plasma assessed as compound remaining at 1 uM after 3 hrs by LC-MS/MS analysis; type: ADME, cell-free
[17] = Kinetic solubility of the compound in pION buffer at 250 uM after 18 hrs at pH 7.4; type: physicochemical; conditions: read-out: Kinetic_solubility
[18] = target: Translocator protein (Homo sapiens, UniProt P30536); test: Binding affinity to PBR receptor (unknown origin)
[19] = Hepatotoxicity in human Fa2N-4 cells after 24 hrs by luminescence assay; type: toxicity, cell-based; conditions: fa2n-4, 24 h, read-out: LC50 (the source's name)
[20] = target: Neurotensin receptor type 1 (Homo sapiens, UniProt P30989); test: Agonist activity at NTR1 (unknown origin) expressed in CHOK1 cells by beta-arrestin assay relative to neurotensin (8 to 13); type: cell-based; conditions: CHO-K1
[21] = Drug uptake in C57BL/6J mouse brain at 30 mg/kg, ip after 1 hr by LC-MS/MS analysis; type: ADME, organism-based; set-up: dose 30 mg/kg, route intraperitoneal; conditions: read-out: Drug uptake
[22] = Kinetic solubility of the compound in pION buffer at 250 uM after 18 hrs at pH 5; type: physicochemical; conditions: read-out: Kinetic_solubility
[23] = tested on: Plasma; test: Plasma protein binding in human at 1 uM after 4 hrs by LC-MS/MS analysis; type: ADME, cell-free
[24] = target: T3, Alpha-1B adrenergic receptor (Homo sapiens) (UniProt P35368); test: Binding affinity to adrenergic alpha1B receptor (unknown origin) at 10 uM relative to control
T3 sequence (whole entry): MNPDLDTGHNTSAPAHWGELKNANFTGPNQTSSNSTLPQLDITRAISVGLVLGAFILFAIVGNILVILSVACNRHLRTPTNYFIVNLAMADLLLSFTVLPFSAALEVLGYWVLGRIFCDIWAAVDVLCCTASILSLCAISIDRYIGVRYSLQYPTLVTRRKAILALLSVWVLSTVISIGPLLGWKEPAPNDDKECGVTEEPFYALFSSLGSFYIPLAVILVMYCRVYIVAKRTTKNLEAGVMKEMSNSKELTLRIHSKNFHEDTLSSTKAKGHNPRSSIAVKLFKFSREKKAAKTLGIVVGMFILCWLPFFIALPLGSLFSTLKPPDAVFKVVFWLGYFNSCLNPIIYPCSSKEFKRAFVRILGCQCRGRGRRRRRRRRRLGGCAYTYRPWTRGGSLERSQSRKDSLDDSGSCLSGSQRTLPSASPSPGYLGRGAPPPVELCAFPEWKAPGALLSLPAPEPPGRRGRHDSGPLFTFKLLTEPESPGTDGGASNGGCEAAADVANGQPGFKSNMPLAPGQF

[25] = tested on: Plasma; test: Plasma protein binding in mouse at 10 uM after 4 hrs by LC-MS/MS analysis; type: ADME, cell-free

Histamine H1 receptor, sequence (P35367 whole entry): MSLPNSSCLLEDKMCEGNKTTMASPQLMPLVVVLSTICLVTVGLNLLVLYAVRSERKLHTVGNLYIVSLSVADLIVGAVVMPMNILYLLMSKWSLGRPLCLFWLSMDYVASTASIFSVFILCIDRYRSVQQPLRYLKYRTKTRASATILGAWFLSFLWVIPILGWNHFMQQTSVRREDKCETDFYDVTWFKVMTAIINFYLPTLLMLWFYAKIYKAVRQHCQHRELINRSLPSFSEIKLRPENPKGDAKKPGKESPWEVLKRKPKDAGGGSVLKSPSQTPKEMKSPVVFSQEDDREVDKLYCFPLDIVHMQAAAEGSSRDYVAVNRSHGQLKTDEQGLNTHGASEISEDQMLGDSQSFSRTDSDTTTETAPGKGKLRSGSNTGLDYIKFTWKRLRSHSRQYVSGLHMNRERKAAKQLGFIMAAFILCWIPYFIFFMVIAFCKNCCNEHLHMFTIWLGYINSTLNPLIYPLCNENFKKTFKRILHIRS
Neurotensin receptor type 1, sequence (P30989 whole entry): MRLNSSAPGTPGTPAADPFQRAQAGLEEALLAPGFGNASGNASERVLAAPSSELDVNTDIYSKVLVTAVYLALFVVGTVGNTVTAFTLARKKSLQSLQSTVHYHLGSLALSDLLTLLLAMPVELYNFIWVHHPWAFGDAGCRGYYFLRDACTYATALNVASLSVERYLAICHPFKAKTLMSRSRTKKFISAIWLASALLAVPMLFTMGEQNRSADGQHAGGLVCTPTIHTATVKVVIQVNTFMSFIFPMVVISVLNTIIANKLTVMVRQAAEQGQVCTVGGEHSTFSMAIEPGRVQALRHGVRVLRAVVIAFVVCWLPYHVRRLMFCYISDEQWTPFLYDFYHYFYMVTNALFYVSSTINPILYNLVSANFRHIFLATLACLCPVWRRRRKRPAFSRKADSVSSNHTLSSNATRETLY
Translocator protein, sequence (P30536 whole entry): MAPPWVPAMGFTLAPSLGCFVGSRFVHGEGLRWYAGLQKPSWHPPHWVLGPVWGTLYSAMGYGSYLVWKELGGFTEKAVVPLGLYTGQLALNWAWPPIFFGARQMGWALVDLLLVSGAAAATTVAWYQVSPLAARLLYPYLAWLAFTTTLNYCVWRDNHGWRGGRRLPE
Neurotensin receptor type 2, sequence (O95665 whole entry): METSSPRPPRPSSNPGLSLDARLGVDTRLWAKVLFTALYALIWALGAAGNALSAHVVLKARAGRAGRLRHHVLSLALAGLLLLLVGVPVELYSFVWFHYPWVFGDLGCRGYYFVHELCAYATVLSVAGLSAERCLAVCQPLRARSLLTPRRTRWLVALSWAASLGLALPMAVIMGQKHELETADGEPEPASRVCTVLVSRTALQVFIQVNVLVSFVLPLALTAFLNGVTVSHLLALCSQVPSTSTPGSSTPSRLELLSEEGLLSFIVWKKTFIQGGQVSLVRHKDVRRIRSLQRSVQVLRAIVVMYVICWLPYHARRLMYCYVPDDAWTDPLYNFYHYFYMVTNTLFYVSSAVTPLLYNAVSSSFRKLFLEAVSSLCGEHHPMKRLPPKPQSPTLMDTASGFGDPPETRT

**Q.** For `COc1cc2nc(C3CC3)nc(N3CCN(c4ccccc4OC)CC3)c2cc1OC`, which Peff [1] is on record?
**A.** 2090 ×10⁻⁶ cm/s

**Q.** What about the Activity [2] of the same compound?
**A.** 63%

**Q.** What about the Peff [3] of the same compound?
**A.** 1160 ×10⁻⁶ cm/s

**Q.** What about the solubility kinetic at 18 h, 250 µM [4] of the same compound?
**A.** 1.1 µM (≈ 0.463 µg/mL)

**Q.** And the Stability [5]?
**A.** 1.4%

**Q.** What about the GI [6] of the same compound?
**A.** 3.9 µM

**Q.** What about the EC50 [7] of the same compound?
**A.** > 80000 nM

**Q.** And the concentration at 1 h [8]?
**A.** 924 ng/mL

**Q.** And the Ki [9]?
**A.** 1420 nM

**Q.** What about the Ki [10] of the same compound?
**A.** 1000 nM

**Q.** What about the PPB [11] of the same compound?
**A.** 99.7%

**Q.** What about the CLH [12] of the same compound?
**A.** 81 mL/min/kg

**Q.** And the solubility kinetic at 18 h, 250 µM [13]?
**A.** 21.4 µM (≈ 9 µg/mL)

**Q.** What about the GI [14] of the same compound?
**A.** 3.16 µM

**Q.** And the Stability [15]?
**A.** 0.2%

**Q.** What about the Stability [16] of the same compound?
**A.** 99.6%

**Q.** And the solubility kinetic at 18 h, 250 µM [17]?
**A.** 1.2 µM (≈ 0.505 µg/mL)

**Q.** What about the Ki [18] of the same compound?
**A.** 2540 nM

**Q.** What about the CC50 [19] of the same compound?
**A.** 29600 nM

**Q.** And the Emax [20]?
**A.** 86.6%

**Q.** What about the concentration at 1 h [21] of the same compound?
**A.** 1510 ng/mL

**Q.** And the solubility kinetic at 18 h, 250 µM [22]?
**A.** > 297 µM

**Q.** What about the PPB [23] of the same compound?
**A.** 99.5%

**Q.** And the Activity [24]?
**A.** 63%

**Q.** And the PPB [25]?
**A.** 98.9%
